Results taken from patent US12552833B2, “Dynamics within supramolecuar IKVAV matrices enhance functional maturation of human IPSCS-derived neurons and regeneration” (Northwestern University, priority 2019, dated 2026).
No end group written: not given here. *: point of attachment. Palmitoyl = CCCCCCCCCCCCCCCC(=O)*

Columns and labels:
human MNs [1] = assay: Patch-electrode recording of action potentials from human MNs grown on A2G2 and laminin matrices; assay type: cell-based; details: MNs grown on A2G2 compared with laminin matrices, day 48-49 (FIG. 4L)
Experimental: Motor neurons (MN) differentiation: At 70% confluency, iPSC cultures were dissociated using Accutase and plated at a density of 10^5 cells/cm^2 with 10 μM ROCK inhibitor (Y-27632, DNSK International) in mTeSR1. Next day (day 0), media was replaced with N2B27 medium (50% DMEM:F12, 50% Neurobasal, supplemented with NEAA, Glutamax, N2 and B27; Gibco, Life Technologies) containing 10 μM SB431542 (DNSK International), 100 nM LDN-193189 (DNSK International), 1 μM Retinoic Acid (RA, Sigma) and 1 μM of Smoothened-Agonist (SAG, DNSK International). Culture medium was daily changed until day 6, then was switched to N2B27 medium supplemented with 1 μM RA, 1 μM SAG, 5 μM DAPT (DNSK International) and 4 μM SU5402 (DNSK International). Cells were fed daily until day 14, when MNs were dissociated using TrypLE Express (Gibco, Life Technologies) supplemented with DNase I (Worthington) and plated onto pre-coated poly-D-Lysine/laminin or the distinct IKVAV-coated surfaces. MNs were feed 3 times a week with neurobasal medium (NBM: NEAA, Glutamax, N2 and B27) supplemented with Ascorbic acid (0.2 μg/ml; Sigma-Aldrich), BDNF, CNTF and GDNF (10 ng/mL, R&D systems) and 1% fetal bovine serum (FBS).

human MNs [2] = assay: Tandem mass spectrometry and gene ontology (GO) analysis of proteins differentially expressed in MNs cultured on A2G2 IKVAV PA vs. laminin coated surfaces; assay type: cell-based; details: A2G2 condition vs. laminin; 21 out of the 58 GO terms of Ho et al., 2016 (FIG. 31A)
From the text: FIGS. 31A-31C Assessment of MN maturation through gene ontology (GO) analysis of proteins differentially expressed in MNs cultured on A2G2 IKVAV PA and laminin coated surfaces. Tandem mass spectrometry analysis uncovered differentially expressed proteins between MNs plated on […] surfaces, that are associated with GO terms that have been directly linked to human MN maturation (Ho et al., 2016). (FIG. 31A) From the differentially expressed proteins in A2G2 condition, 21 out of the 58 (36%) GO terms associated with maturation of human MNs were identified. […] Horizontal bar plots display the p-values of the MN maturation related GO terms identified in the protein data set. Pie charts represent the percentage of GO terms obtained in this study compared to the previously described GO terms associated with MN maturation (Ho et al., 2016).
Motor neurons (MN) differentiation: At 70% confluency, iPSC cultures were dissociated using Accutase and plated at a density of 10^5 cells/cm^2 with 10 μM ROCK inhibitor (Y-27632, DNSK International) in mTeSR1. Next day (day 0), media was replaced with N2B27 medium (50% DMEM:F12, 50% Neurobasal, supplemented with NEAA, Glutamax, N2 and B27; Gibco, Life Technologies) containing 10 μM SB431542 (DNSK International), 100 nM LDN-193189 (DNSK International), 1 μM Retinoic Acid (RA, Sigma) and 1 μM of Smoothened-Agonist (SAG, DNSK International). […]

Substance: C16A2G2E4GIKVAV (Palmitoyl-AAGGEEEEGIKVAV) [IKVAV peptide amphiphile with A2G2 structural segment]
- action potential amplitude (human MNs [1]): significantly larger amplitude
- action potential rates of rise and fall (human MNs [1]): faster rates of rise and fall
- GO terms associated with maturation of human MNs identified from the differentially expressed proteins (human MNs [2]): 36%
